In patent publication US7906684B2, “Antioxidants” (Merck Patent Gesellschaft Mit Beschrankter Haftung, priority 2006, dated 2011):

What was measured:
[1] = Photoconversion test, 4% solution in isopropyl myristate on Perspex support, simulated solar irradiation; assay type: physicochemical; settings: 2 μlcm^−2 on rough Perspex, Suntester 1 h 50 min, extracted with isopropanol, made up to 50 ml
Experimental: A 4% solution of the substance in isopropyl myristate is applied at a rate of 2 μlcm^−2 to a rough Perspex support. The sample is subjected to simulated solar irradiation in a Suntester for 1 h 50 min. After irradiation, the sample is extracted with 40 ml of isopropanol and made up to a precise volume of 50 ml. Compared with an unirradiated sample, an increase in absorbance at the substance maximum at 285 nm of 0.77 absorption units arises.

[2] = TEAC assay (trolox equivalent antioxidant capacity), Bünger et al. method; settings: according to the Bünger et al. method
From the text: (§1) A detailed description, besides the […] just described, for the lipid assay (or 2,2′-azobis(2-aminopropane)=ABAP assay) or the TEAC assay (TEAC=trolox equivalent antioxidant capacity) is also found in Bünger et al, International Journal of Cosmetic Science, 2006, 28, 135-146.

[3] = lipid assay (2,2'-azobis(2-aminopropane) = ABAP assay), Bünger et al. method; settings: according to the Bünger et al. method
From the text: as §1

[4] = Photoconversion test, substance on roughened Perspex plates, sun simulation; assay type: physicochemical; settings: 0.75 mg/cm^−2 on roughened Perspex plates, FIG. 1
Experimental: The substance is applied to roughened Perspex plates (0.75 mg/cm^−2) and irradiated under sun simulation. The dose is to be understood as the absolute, unweighted total UV irradiation dose. After each irradiation step, the UV absorption of the sample is measured against placebo (placebo=Perspex plate with glycerol).

COc1ccc(C(O)c2ccccc2)cc1 (stereo not shown) [Compound (9), (4-methoxyphenyl)phenylmethanol]
increase in absorbance at the substance maximum at 285 nm compared with an unirradiated sample [1]: 0.77 absorption units

COc1ccc(C(O)c2ccccc2)c(O)c1 (stereo not shown) [Compound (5), 2-(hydroxyphenylmethyl)-5-methoxyphenol]
TEAC assay [2]: 50%
lipid assay [3]: 8%
UV absorption of the sample after irradiation, measured against placebo [4]: increases in absorption power due to irradiation
